Among the data in patent publication US11407737B2, “Inhibitors of RAF kinases” (Kinnate Biopharma Inc., priority 2020, dated 2022) are IC50 values, retold here.

The term IC50 denotes the concentration needed to halve the response being measured.

Where a name gives a salt, the structure may show the parent alone.

The target in this experiment is human RAF1 (Homo sapiens (Human), UniProt P04049). The experiment can be described thus: Protein kinase assay (radiometric 33P-ATP, MEK1 (K97R) substrate), RAF-1. It is filed as biochemical. As to conditions: human MEK1 (K97R) substrate 3 micromolar, ATP 10 micromolar; 10-dose, 3-fold serial dilution starting at 10 micromolar; read-out: RAF-1 IC50. On the procedure: Example 1: Kinase Assay Protocol
Chain of human RAF1 (P04049 whole entry): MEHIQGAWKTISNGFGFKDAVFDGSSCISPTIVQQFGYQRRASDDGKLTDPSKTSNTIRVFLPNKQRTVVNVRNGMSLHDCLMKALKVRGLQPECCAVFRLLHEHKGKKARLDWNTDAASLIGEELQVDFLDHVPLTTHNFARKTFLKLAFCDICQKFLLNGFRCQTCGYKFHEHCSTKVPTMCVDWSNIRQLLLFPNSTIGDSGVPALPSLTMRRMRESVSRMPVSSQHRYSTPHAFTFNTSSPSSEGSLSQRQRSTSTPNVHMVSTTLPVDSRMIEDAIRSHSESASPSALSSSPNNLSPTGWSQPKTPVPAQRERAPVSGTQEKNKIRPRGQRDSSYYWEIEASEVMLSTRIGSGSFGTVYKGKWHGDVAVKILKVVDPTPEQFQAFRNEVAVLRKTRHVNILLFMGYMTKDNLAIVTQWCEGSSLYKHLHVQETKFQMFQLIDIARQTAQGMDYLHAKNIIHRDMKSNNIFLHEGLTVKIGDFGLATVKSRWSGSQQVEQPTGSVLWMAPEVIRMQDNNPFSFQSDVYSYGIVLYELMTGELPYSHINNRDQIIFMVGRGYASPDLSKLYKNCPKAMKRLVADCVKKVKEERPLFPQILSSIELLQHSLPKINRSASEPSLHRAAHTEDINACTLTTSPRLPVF
Assay platform was used to measure kinase/inhibitor interactions as described previously (Anastassiadis et al., 2011). In brief, for each reaction, kinase and substrate were mixed in a buffer containing 20 mM HEPES (pH 7.5), 10 mM MgCl2, 1 mM EGTA, 0.02% Brij35, 0.02 mg/mL BSA, 0.1 mM Na3VO4, 2 mM DTT, and 1% DMSO. All compounds were solubilized in DMSO. Compounds were then added to each reaction mixture via acoustic dispense using an ECHO 550 nanoliter dispenser. For human RAF1 testing, human MEK1 (K97R) was used as a substrate at a concentration of 3 micromolar, with a final ATP concentration of 10 micromolar. For human BRAF testing, human MEK1 (K97R) was used as a substrate at 1 micromolar concentration, with a final ATP concentration of 25 micromolar. […] After a 20-min incubation, ATP (Sigma-Aldrich, St. Louis, Mo. 63178) and [g33P] ATP (specific activity 10 microCi/microliter) purchased at PerkinElmer (Boston, Mass., 02118 Cat #BLU 003H250UC) were added at a final total concentration of […]. Reactions were carried out at room temperature for 2 hr and spotted onto P81 ion exchange cellulose chromatography paper (Reaction Biology). Filter paper was washed in 0.75% phosphoric acid to remove unincorporated ATP. The percent remaining kinase activity relative to a vehicle-containing (DMSO) kinase reaction was calculated for each kinase/inhibitor pair. IC50 values were calculated using Prism 5 (GraphPad).
Take `Cc1ccc(NC(=O)N2CC[C@@H](CC(F)(F)F)C2)cc1-c1cc(C2CCNC2)nc(N2CCOCC2)c1` (stereo partly drawn) [Example 34, (3S)—N-[4-methyl-3-[2-(morpholin-4-yl)-6-(pyrrolidin-3-yl)pyridin-4-yl]phenyl]-3-(2,2,2-trifluoroethyl)pyrrolidine-1-carboxamide]: the IC50 was below 1 nM.

With `Cc1ccc(NC(=O)N2CC[C@@H](CC(F)(F)F)C2)cc1-c1cc(C2=CCN(C)C2)nc(N2CCOCC2)c1` [Example 35, (3S)—N-[4-methyl-3-[2-(1-methyl-2,5-dihydropyrrol-3-yl)-6-(morpholin-4-yl)pyridin-4-yl]phenyl]-3-(2,2,2-trifluoroethyl)pyrrolidine-1-carboxamide], the half-inhibitory concentration (IC50) lay within 1 to 10 nM.

On to `Cc1ccc(NC(=O)N2CC[C@@H](CC(F)(F)F)C2)cc1-c1cc(-c2ccn(C)n2)nc(N2CCOCC2)c1` [Example 36, (3S)—N-[4-methyl-3-[2-(1-methylpyrazol-3-yl)-6-(morpholin-4-yl)pyridin-4-yl]phenyl]-3-(2,2,2-trifluoroethyl)pyrrolidine-1-carboxamide], for which the IC50 is below 1 nM.

For `Cc1ccc(NC(=O)N2CC[C@@H](CC(F)(F)F)C2)cc1-c1cc(-c2cn(C)nc2C)nc(N2CCOCC2)c1` [Example 37, (3S)—N-[3-[2-(1,3-dimethylpyrazol-4-yl)-6-(morpholin-4-yl)pyridin-4-yl]-4-methylphenyl]-3-(2,2,2-trifluoroethyl)pyrrolidine-1-carboxamide], the IC50 was in the range of 1 to 10 nM.

With `Cc1ccc(NC(=O)N2CC[C@@H](CC(F)(F)F)C2)cc1-c1cc(C2CCN(C)C2)nc(N2CCOCC2)c1` (stereo partly drawn) [Example 38, (3S)—N-(4-methyl-3-(2-(1-methylpyrrolidin-3-yl)-6-morpholinopyridin-4-yl)phenyl)-3-(2,2,2-trifluoroethyl)pyrrolidine-1-carboxamide formate], the half-inhibitory concentration (IC50) lay in the range of 1 to 10 nM.

In the case of `Cc1ccc(NC(=O)N2CC[C@@H](CC(F)(F)F)C2)cc1-c1cc(C2CCN(C)CC2)nc(N2CCOCC2)c1` [Example 39, (S)—N-(4-methyl-3-(2-(1-methylpiperidin-4-yl)-6-morpholinopyridin-4-yl)phenyl)-3-(2,2,2-trifluoroethyl)pyrrolidine-1-carboxamide formate], the IC50 was in the range of 1 to 10 nM.

On to `Cc1ccc(NC(=O)N2CC[C@@H](CC(F)(F)F)C2)cc1-c1cc(-c2ccnc(N)c2)nc(N2CCOCC2)c1` [Example 40, (3S)—N-[3-[2′-amino-6-(morpholin-4-yl)-[2,4′-bipyridin]-4-yl]-4-methylphenyl]-3-(2,2,2-trifluoroethyl)pyrrolidine-1-carboxamide], for which the IC50 fell in the range of 1 to 10 nM.

On to `Cc1ccc(NC(=O)N2CC[C@@H](CC(F)(F)F)C2)cc1-c1cc(-c2cnn(C(F)F)c2)nc(N2CCOCC2)c1` [Example 41, (3S)—N-(3-[2-[1-(difluoromethyl)pyrazol-4-yl]-6-(morpholin-4-yl)pyridin-4-yl]-4-methylphenyl)-3-(2,2,2-trifluoroethyl)pyrrolidine-1-carboxamide], for which the IC50 was 1 to 10 nM.

Take `Cc1ccc(NC(=O)N2CC[C@@H](CC(F)(F)F)C2)cc1-c1cc(-c2cscn2)nc(N2CCOCC2)c1` [Example 42, (3S)—N-[4-methyl-3-[2-(morpholin-4-yl)-6-(1,3-thiazol-4-yl)pyridin-4-yl]phenyl]-3-(2,2,2-trifluoroethyl)pyrrolidine-1-carboxamide]: the IC50 is 1 to 10 nM.

On to `Cc1ccc(NC(=O)N2CC[C@@H](CC(F)(F)F)C2)cc1-c1cc(-c2cnc(N)[nH]2)nc(N2CCOCC2)c1` [Example 43, (3S)—N-[3-[2-(2-amino-3H-imidazol-4-yl)-6-(morpholin-4-yl)pyridin-4-yl]-4-methylphenyl]-3-(2,2,2-trifluoroethyl)pyrrolidine-1-carboxamide], for which the IC50 fell in the range of 1 to 10 nM.

Consider `Cc1ccc(NC(=O)N2CC[C@@H](CC(F)(F)F)C2)cc1-c1cc(-c2cc(N)n(C)n2)nc(N2CCOCC2)c1` [Example 44, (3S)-N-[3-[2-(5-amino-1-methylpyrazol-3-yl)-6-(morpholin-4-yl)pyridin-4-yl]-4-methylphenyl]-3-(2,2,2-trif1uoroethyl)pyrrolidine-1-carboxamide], for which the IC50 lay within 1 to 10 nM.

Turning to `Cc1ccc(NC(=O)N2CC[C@@H](CC(F)(F)F)C2)cc1-c1cc(-c2ccnc(N)n2)nc(N2CCOCC2)c1` [Example 45, (3S)—N-[3-[2-(2-aminopyrimidin-4-yl)-6-(morpholin-4-yl)pyridin-4-yl]-4-methylphenyl]-3-(2,2,2-trifluoroethyl)pyrrolidine-1-carboxamide], the IC50 was in the range of 1 to 10 nM.

As to `Cc1ccc(NC(=O)N2CC[C@@H](CC(F)(F)F)C2)cc1-c1cc(-c2ccnc(C(F)F)c2)nc(N2CCOCC2)c1` [Example 46, (3S)—N-[3-[2′-(difluoromethyl)-6-(morpholin-4-yl)-[2,4′-bipyridin]-4-yl]-4-methylphenyl]-3-(2,2,2-trifluoroethyl)pyrrolidine-1-carboxamide], the IC50 was in the range of 1 to 10 nM.

For `Cc1ccc(NC(=O)N2CC[C@@H](CC(F)(F)F)C2)cc1-c1cc(-c2c[nH]nc2C)nc(N2CCOCC2)c1` [Example 47, (3S)—N-[4-methyl-3-[2-(3-methyl-1H-pyrazol-4-yl)-6-(morpholin-4-yl)pyridin-4-yl]phenyl]-3-(2,2,2-trifluoroethyl)pyrrolidine-1-carboxamide], the 50% inhibitory concentration (IC50) is 1 to 10 nM.

Regarding `Cc1ccc(NC(=O)N2CC[C@@H](CC(F)(F)F)C2)cc1-c1cc(-c2cnn(C)c2C)nc(N2CCOCC2)c1` [Example 48, (3S)—N-[3-[2-(1,5-dimethylpyrazol-4-yl)-6-(morpholin-4-yl)pyridin-4-yl]-4-methylphenyl]-3-(2,2,2-trifluoroethyl)pyrrolidine-1-carboxamide], the IC50 is below 1 nM.

Regarding `Cc1ccc(NC(=O)N2CC[C@@H](CC(F)(F)F)C2)cc1-c1cc(-c2ccnn2C)nc(N2CCOCC2)c1` [Example 49, (3S)—N-[4-methyl-3-[2-(2-methylpyrazol-3-yl)-6-(morpholin-4-yl)pyridin-4-yl]phenyl]-3-(2,2,2-trifluoroethyl)pyrrolidine-1-carboxamide], the half-maximal inhibitory concentration (IC50) was below 1 nM.

In the case of `Cc1cc(-c2cc(-c3cc(NC(=O)N4CC[C@@H](CC(F)(F)F)C4)ccc3C)cc(N3CCOCC3)n2)n(C)n1` [Example 50, (3S)—N-[3-[2-(2,5-dimethylpyrazol-3-yl)-6-(morpholin-4-yl)pyridin-4-yl]-4-methylphenyl]-3-(2,2,2-trifluoroethyl)pyrrolidine-1-carboxamide], the IC50 lay within 1 to 10 nM.

Take `Cc1ccc(NC(=O)N2CC[C@@H](CC(F)(F)F)C2)cc1-c1cc(-c2c(C)n[nH]c2C)nc(N2CCOCC2)c1` [Example 51, (3S)—N-[3-[2-(3,5-dimethyl-1H-pyrazol-4-yl)-6-(morpholin-4-yl)pyridin-4-yl]-4-methylphenyl]-3-(2,2,2-trifluoroethyl)pyrrolidine-1-carboxamide]: the IC50 lay in the range of 1 to 10 nM.

For `Cc1ccc(NC(=O)N2CC[C@@H](CC(F)(F)F)C2)cc1-c1cc(-c2cc(C)n(C)n2)nc(N2CCOCC2)c1` [Example 52, (3S)—N-[3-[2-(1,5-dimethylpyrazol-3-yl)-6-(morpholin-4-yl)pyridin-4-yl]-4-methylphenyl]-3-(2,2,2-trifluoroethyl)pyrrolidine-1-carboxamide], the IC50 lay within 1 to 10 nM.

`Cc1ccc(NC(=O)N2CC[C@@H](CC(F)(F)F)C2)cc1-c1cc(-c2c[nH]cn2)nc(N2CCOCC2)c1` [Example 53, (3S)—N-[3-[2-(1H-imidazol-4-yl)-6-(morpholin-4-yl)pyridin-4-yl]-4-methylphenyl]-3-(2,2,2-trifluoroethyl)pyrrolidine-1-carboxamide]: the half-maximal inhibitory concentration (IC50) fell in the range of 1 to 10 nM.

Consider `Cc1ccc(NC(=O)N2CC[C@@H](CC(F)(F)F)C2)cc1-c1cc(-c2cn(C)cn2)nc(N2CCOCC2)c1` [Example 54, (3S)—N-{4-methyl-3-[2-(1-methylimidazol-4-yl)-6-(morpholin-4-yl)pyridin-4-yl]phenyl}-3-(2,2,2-trifluoroethyl)pyrrolidine-1-carboxamide], for which the half-maximal inhibitory concentration (IC50) lay within 1 to 10 nM.

In the case of `Cc1ccc(NC(=O)N2CC[C@@H](CC(F)(F)F)C2)cc1-c1cc(C#CC(C)N)nc(N2CCOCC2)c1` (stereo partly drawn) [Example 55, (3S)—N-{3-[2-(3-aminobut-1-yn-1-yl)-6-(morpholin-4-yl)pyridin-4-yl]-4-methylphenyl}-3-(2,2,2-trifluoroethyl)pyrrolidine-1-carboxamide], the half-maximal inhibitory concentration (IC50) was in the range of 1 to 10 nM.

Regarding `Cc1ccc(NC(=O)N2CC[C@@H](CC(F)(F)F)C2)cc1-c1cc(N2CCOCC2)nc(C(F)(F)F)c1` [Example 56, (3S)—N-[4-methyl-3-[2-(morpholin-4-yl)-6-(trifluoromethyl)pyridin-4-yl]phenyl]-3-(2,2,2-trifluoroethyl)pyrrolidine-1-carboxamide], the IC50 was 1 to 10 nM.

In the case of `Cc1ccc(NC(=O)N2CC[C@@H](CC(F)(F)F)C2)cc1-c1cc(C(F)F)nc(N2CCOCC2)c1` [Example 57, (3S)—N-{3-[2-(difluoromethyl)-6-(morpholin-4-yl)pyridin-4-yl]-4-methylphenyl}-3-(2,2,2-trifluoroethyl)pyrrolidine-1-carboxamide], the IC50 was 1 to 10 nM.
